Source: PMC3809593 (BioMed Research International, 2013)
Several values for one entry are separate records, joined by “and”; a condition that tells them apart may be missing. Equal values may be shown once. Entries after “also recorded” stand apart in the source; their conditions may differ. Ends that are not written are not given here.

Assays:
[1] = cited from earlier work
From the text: This peptide is water soluble and nonhaemolytic at its effective and amphiphilic antimicrobial concentrations. At small concentrations, it inhibits the growth of numerous species of bacteria and fungi, and it induces osmotic lysis in protozoa ... || According to the product specifications, this peptide is soluble in distilled water with 0.1% TFA. As the solution is meant to be inserted into cell culture medium, we have chosen RPMI as the most suitable medium. This medium also allowed us to maintain an optimum pH (7.2–7.4) as we inserted the peptide solution. The extemporaneous peptide solution was utilized immediately after preparation.

[2] = tested on: M14K (human mesothelioma) tumour cell line; assay: PE Annexin V / 7-AAD flow cytometry apoptosis assay; assay type: cell-based; conditions: for Q1 (7-AAD+) dead cells / Q2 (7-AAD+ Annexin V+) late apoptotic cells / Q4 (Annexin V+ 7AAD−) early apoptotic cells: 72 h in RPMI, 5000 events/well; for Q1 (7-AAD+) dead cells: negative control 2.1; for Q2 (7-AAD+ Annexin V+) late apoptotic cells: negative control 3.8; for Q4 (Annexin V+ 7AAD−) early apoptotic cells: negative control 4.5
Protocol: (§1) We analysed the cytotoxicity of the peptide chosen for our study in relation to two adherent tumour cell lines: MDA-MB-231 (breast adenocarcinoma) and M14K (human mesothelioma). These lines were cultivated in the same conditions as those used for the optimization of the number of target cells. The negative control was represented by target cells incubated without peptide. Viability was analysed after 72 h of incubation at 37°C, 5% CO2, by two methods: MTT colorimetric assay [3-(4,5-dimethylthiazol-2-yl)-2,5-diphenyltetrazolium bromide] and flow cytometry using PE Annexin V (BD Pharmingen) and 7-AAD (7-aminoactinomycin D).
(§2) PE Annexin V and 7-AAD (7-Aminoactinomycin D) (BD Pharmingen) Viability Assay. This assay was used to detect and measure the apoptotic process by means of flow cytometry. Apoptosis is characterized by cell morphology changes, nuclear condensation, pyknosis, and also by a series of biochemical events causing mitochondrial membrane and nuclear DNA degradation. Phosphatidylserine, which is normally present in the inner layer of the lipid bilayer of the cell membrane, is exposed at the surface of the cells undergoing various stages of apoptosis. Annexin V has great affinity to phosphatidylserine residue, and 7-AAD was used as vital nuclear DNA stain. 96-well cell culture plates were used in our study. The first (1) and last (12) columns of wells only contained culture medium (RPMI 1640) in order to prevent the edge effect. Columns 2 and 11 of wells only contained peptide-free cell suspension (negative control). Columns 3–10 contained target cells and consecutive peptide dilutions. We worked in triplicate for the two cell lines and all the peptide concentrations we used. After 72 h of incubation at 37°C, 5% CO2, adherent cells were detached by trypsination (3–10 minutes of incubation at 37°C with Eurobio trypsin). The cell suspension was distributed in such a manner that each FACS tube had 1 × 10^5 cells. 3 FACS tubes were assessed; the first FACS tube contained unmarked cells, the second FACS tube contained Annexin V PE, and the third FACS tube contained Annexin V PE/7-AAD. Data collection and interpretation were done on a FACS Canto II flow cytometer using the FACSDiva Software (Becton Dickinson) (Figure 3).

[3] = tested on: MDA-MB-231 (breast adenocarcinoma) tumour cell line; assay: as above; assay type: cell-based, human; conditions: MDA-MB231, 72 h in RPMI, 5000 events/well; for Q1—dead cells (7-AAD+): negative control 1.8; for Q2—late apoptosis cells (7-AAD+ Annexin V+): negative control 3; for Q4—early apoptosis cells (Annexin V+ 7-AAD−): negative control 4.7; for Q3—living cells (7-AAD− Annexin V−): negative control 90.5
Protocol: as §1, §2
Flow cytometry allowed apoptosis assessment for the MDA-MB-231 cell line incubated with the […]. 5000 events/well were acquired, and the results were compared with the viability of the peptide-free cells (negative control).

[4] = tested on: MDA-MB-231 (breast adenocarcinoma) tumour cell line; assay: MTT viability assay (cytostasis %); assay type: cell-based, human; conditions: MDA-MB-231, 72 h incubation in RPMI, mean of three absorbance readings
Protocol: (§3) Consecutive peptide dilutions with RPMI 1640 (Sigma Aldrich) were used, whereas the working concentrations were 120 μM, 60 μM, 30 μM, 15 μM, 7.5 μM, 3.5 μM, 1.8 μM, and 0.9 μM in a final volume of 200 μL/well. […] Everything was treated in a sterile fashion.
as §1
(§4) [3-(4,5-Dimethylthiazol-2-yl)-2,5-diphenyltetrazolium Bromide] […] Absorbance was measured at 570 nm against a 620 nm reference wavelength using a Tecan Sunrise plate reader. Relying on the absorbance values read in the cells incubated with the peptide studied (A peptide cells) and depending on the absorbance value read in peptide-free cells (A negative control), we calculated the cytostasis percentage, that is, the percentage of cells affected by apoptosis of the whole number of cells in any of the wells analysed. […]

MCF7 tumour cell line = conditions: cited from earlier work
From the text: MDA-MB-231 is an adherent breast adenocarcinoma cell line, one of the three known breast cancer cell lines: MCF-7, MDA-MB-231, and T-47D [18, 19].

[5] = tested on: M14K (human mesothelioma) tumour cell line; assay: MTT viability assay (cytostasis %); assay type: cell-based; conditions: 72 h incubation in RPMI, mean of three absorbance readings
Protocol: as §3, §1, §4

[6] = at its effective antimicrobial concentrations; cited from earlier work
From the text: This peptide is water soluble and nonhaemolytic at its effective and amphiphilic antimicrobial concentrations. At small concentrations, it inhibits the growth of numerous species of bacteria and fungi, and it induces osmotic lysis in protozoa ...

**Q.** What does the source list for GIGKFLHSAKKFGKAFVGEIMNS [Magainin II]?
**A.** solubility in water [1]: water soluble; solubility ([1]; distilled water with 0.1% TFA, ref product specifications (SIGMA M7402-1MG)): soluble; Q1 (7-AAD+) dead cells ([2]; 60 μM peptide): 0.3%; Q2 (7-AAD+ Annexin V+) late apoptotic cells ([2]; 60 μM peptide): 8.6%; Q4 (Annexin V+ 7AAD−) early apoptotic cells ([2]; 60 μM peptide): 5.9%; Q1 (7-AAD+) dead cells ([2]; 120 μM peptide): 2.8%; Q2 (7-AAD+ Annexin V+) late apoptotic cells ([2]; 120 μM peptide): 47.8%; Q4 (Annexin V+ 7AAD−) early apoptotic cells ([2]; 120 μM peptide): 13.5%; cell population that underwent apoptosis ([2]; 72 h, flow cytometry PE Annexin V/7-AAD, concentration not stated in the sentence (values match 120 μM)): over 50%; Q1—dead cells (7-AAD+) ([3]; 60 μM peptide): 0.8%; Q2—late apoptosis cells (7-AAD+ Annexin V+) ([3]; 60 μM peptide): 19.6%; Q4—early apoptosis cells (Annexin V+ 7-AAD−) ([3]; 60 μM peptide): 3.4%; Q3—living cells (7-AAD− Annexin V−) ([3]; 60 μM peptide): 76.2%; Q1—dead cells (7-AAD+) ([3]; 120 μM peptide): 1.4%; Q2—late apoptosis cells (7-AAD+ Annexin V+) ([3]; 120 μM peptide): 47.5%; Q4—early apoptosis cells (Annexin V+ 7-AAD−) ([3]; 120 μM peptide): 14.8%; Q3—living cells (7-AAD− Annexin V−) ([3]; 120 μM peptide): 36.3%; cytostasis % (MTT test) ([4]; 15 μM peptide): absent; cytostasis % (MTT test) ([4]; 30 μM peptide): persisted; also recorded: significantly lower; concentration with cytotoxic effect (MCF7 tumour cell line): exceed 200 μg/mL and > 80 μM; cytostasis % (MTT test) ([5]; 15 μM peptide): absent; cytostasis % (MTT test) ([5]; 30 μM peptide): significantly lower; haemolysis [6]: nonhaemolytic
